How the values were obtained:
[1] = Half lives of various silanes in 0.1M aqueous phosphate buffers at pH 7 and 25°; type: physicochemical; details: 0.1M aqueous phosphate buffer, pH 7, 25°
Procedure: Half lives of various silanes in 0.1M aqueous
phosphate buffers at pH 7 and 25°.

[2] = tested on: Hevea brasiliensis trees (Clone Tjirandji 1); experiment: Yield of dried rubber from trees treated on scraped bark below the tapping cut; type: in vivo; details: 20% w/w in palm oil, alternate-day half-spiral tapping, mean over two weeks
Procedure: A solution of 20% w/w of diphenyl 2-(trimethylsilyl)ethylphosphate in palm oil was applied to 11/2 inch wide strip of scraped bark just below the tapping cut of Hevea brasiliensis trees (Clone Tjirandji 1). The trees were tapped on alternate days using a half-spiral tapping cut. The yield of dried rubber obtained over a four-week period was measured. The mean yields over two weeks, expressed as grams of dry rubber per tree per tapping was 45.5 (194% of control).

[3] = tested on: Hevea brasiliensis seedlings; experiment: Average rubber yield of seedlings treated with silane, neat liquid or 12% solution in petroleum jelly; type: in vivo
Procedure: Three Hevea brasiliensis seedlings were treated with 2-chloroethyltrimethoxysilane (2 μ1) applied as a neat liquid. Three similar seedlings were treated with the same weight of compound applied as a 12% solution in petroleum jelly. The following average yields of rubber were obtained (yield in mg of dry rubber, expressed as a percentage of pretreatment yields in parentheses).

[4] = 12% solution in petroleum jelly, 3 days after treatment
[5] = 12% solution in petroleum jelly, 7 days after treatment
[6] = 12% solution in petroleum jelly, 12 days after treatment
[7] = 12% solution in petroleum jelly, 16 days after treatment
[8] = 12% solution in petroleum jelly, 24 days after treatment
[9] = 12% solution in petroleum jelly, 30 days after treatment
[10] = 12% solution in petroleum jelly, 34 days after treatment
[11] = 12% solution in petroleum jelly, 42 days after treatment
[12] = neat liquid (2 μl), 3 days after treatment
[13] = neat liquid (2 μl), 7 days after treatment
[14] = neat liquid (2 μl), 12 days after treatment
[15] = neat liquid (2 μl), 16 days after treatment
[16] = neat liquid (2 μl), 24 days after treatment
[17] = neat liquid (2 μl), 30 days after treatment
[18] = neat liquid (2 μl), 34 days after treatment
[19] = neat liquid (2 μl), 42 days after treatment

CC(C)O[Si](CCCl)(OC(C)C)OC(C)C [2-chloroethyltriisopropoxysilane]
half-life [1]: 504 h

C[Si](C)(C)CCOP(=O)(Oc1ccccc1)Oc1ccccc1 [diphenyl 2-(trimethylsilyl)-ethyl phosphate]
mean yield of dry rubber per tree per tapping [2]: 45.5 grams of dry rubber per tree per tapping | mean yield relative to control [2]: 194 % of control

CC[S+](C)CC[Si](OC)(OC)OC.[I-] (centres unmarked) [ethyl methyl 2-(trimethoxysilyl)-ethyl sulphonium iodide]
half-life [1]: 14 h

C[Si](C)(C)CCCl [2-chloroethyltrimethylsilane]
half-life [1]: < 0.0167 h

CO[Si](CCCl)(OC)OC [2-chloroethyltrimethoxysilane]
half-life [1]: 0.333 h | average yield of dry rubber [3, 4]: 2.2 mg | yield as a percentage of pretreatment yields [3, 4]: 160% | average yield of dry rubber [3, 5]: 2.3 mg | yield as a percentage of pretreatment yields [3, 5]: 164% | average yield of dry rubber [3, 6]: 2.3 mg | yield as a percentage of pretreatment yields [3, 6]: 164% | average yield of dry rubber [3, 7]: 3.0 mg | yield as a percentage of pretreatment yields [3, 7]: 215% | average yield of dry rubber [3, 8]: 2.2 mg | yield as a percentage of pretreatment yields [3, 8]: 160% | average yield of dry rubber [3, 9]: 2.3 mg | yield as a percentage of pretreatment yields [3, 9]: 164% | average yield of dry rubber [3, 10]: 1.8 mg | yield as a percentage of pretreatment yields [3, 10]: 128% | average yield of dry rubber [3, 11]: 0.9 mg | yield as a percentage of pretreatment yields [3, 11]: 65% | average yield of dry rubber [3, 12]: 2.1 mg | yield as a percentage of pretreatment yields [3, 12]: 230% | average yield of dry rubber [3, 13]: 2.2 mg | yield as a percentage of pretreatment yields [3, 13]: 245% | average yield of dry rubber [3, 14]: 1.3 mg | yield as a percentage of pretreatment yields [3, 14]: 145% | average yield of dry rubber [3, 15]: 1.1 mg | yield as a percentage of pretreatment yields [3, 15]: 122% | average yield of dry rubber [3, 16]: 0.9 mg | yield as a percentage of pretreatment yields [3, 16]: 100% | average yield of dry rubber [3, 17]: 0.8 mg | yield as a percentage of pretreatment yields [3, 17]: 90% | average yield of dry rubber [3, 18]: 1.2 mg | yield as a percentage of pretreatment yields [3, 18]: 134% | average yield of dry rubber [3, 19]: 1.0 mg | yield as a percentage of pretreatment yields [3, 19]: 112%
